pIC50: −log10 of the molar value. Like-named read-outs stand apart in the source and are kept apart here.
What was measured:
CDK2/CCNE1 = CDK2/CCNE1 (Homo sapiens, UniProt P24941); assay: CDK2 homogeneous time-resolved fluorescence (HTRF) kinase assay; assay type: biochemical; settings: CDK2/CCNE
Procedure: (§1) A CDK homogeneous time-resolved fluorescence (HTRF) assay was used to assess the potency of the compounds described herein.
(§2) To an untreated 384-well microtiter plate (ProxiPlate) was added 100 nL 100×test compound in DMSO and 5 μL 2×CDK enzyme in assay buffer (50 mM HEPES, 1 mM EGTA, 10 mM MgCl2, 0.01% Tween 20, 2 mM DTT). The plate was centrifuged at 800 RPM for 1 min then incubated for 20 min at 23 °C. 2.5 μL per well of 4×ATP and 2.5 μL 4×ULight™-eIF4E-binding protein 1 (Thr37/46) Peptide substrate were added to all wells. After addition, the plates were centrifuged at 800 RPM for 1 min. The plates were incubated at 23 °C for 60 min. 5 μL per well 4×EDTA solution were added to each well to stop the reaction. 5 μL 4×LANCE Ultra Europium-anti-phospho-eIF4E-binding protein 1 (Thr37/46) antibody were added to each well and the plate was centrifuged for 1 min at 800 RPM. The plate was incubated for 60 min at 23 °C. Fluorescence was read at 340 nm excitation and 665 nm emission on an En Vision 2105 fluorescence reader. The final concentrations of reagents in the activity assay were 3 nM CDK2/CCNE1, 1 mM ATP, 50 nM ULight™-eIF4E-binding protein 1 (Thr37/46) Peptide substrate, 1% DMSO, 10 mM EDTA, and 2 nM LANCE Ultra Europium-anti-phospho-eIF4E-binding protein 1 (Thr37/46).
(§3) Dose-response titrations were conducted by using an 11-point, half-logarithmic serial dilution scheme typically starting at 10 μM. Signals were reported as fluorescence units at 665 nm or the ratio of fluorescence units at 665 nm/fluorescence units at 615 nm. Signals are referred to below as “Lance signals”.
(§4) Using this assay, the IC50 values of example compounds were determined. Table 3 illustrates the IC50 for various Example compounds of Formula IA. Table 4 illustrates the IC50 for various other Example compounds of Formula I. ND=not determined.

CDK1/CCNB1 = CDK1/CCNB1 (Homo sapiens, UniProt P06493); assay: CDK1 homogeneous time-resolved fluorescence (HTRF) kinase assay; assay type: biochemical; settings: CDK1/CCNB
Sequence of CDK1/CCNB1 (P06493 whole entry): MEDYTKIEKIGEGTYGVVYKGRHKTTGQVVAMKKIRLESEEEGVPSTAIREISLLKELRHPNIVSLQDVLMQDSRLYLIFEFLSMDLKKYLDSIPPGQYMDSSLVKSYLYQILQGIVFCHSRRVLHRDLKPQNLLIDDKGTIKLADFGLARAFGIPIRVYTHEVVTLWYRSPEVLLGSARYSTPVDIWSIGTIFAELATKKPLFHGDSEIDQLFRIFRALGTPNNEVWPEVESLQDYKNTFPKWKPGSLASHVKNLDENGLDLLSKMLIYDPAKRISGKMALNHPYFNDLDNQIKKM
Sequence of CDK1/CCNB1 (P14635 whole entry partner): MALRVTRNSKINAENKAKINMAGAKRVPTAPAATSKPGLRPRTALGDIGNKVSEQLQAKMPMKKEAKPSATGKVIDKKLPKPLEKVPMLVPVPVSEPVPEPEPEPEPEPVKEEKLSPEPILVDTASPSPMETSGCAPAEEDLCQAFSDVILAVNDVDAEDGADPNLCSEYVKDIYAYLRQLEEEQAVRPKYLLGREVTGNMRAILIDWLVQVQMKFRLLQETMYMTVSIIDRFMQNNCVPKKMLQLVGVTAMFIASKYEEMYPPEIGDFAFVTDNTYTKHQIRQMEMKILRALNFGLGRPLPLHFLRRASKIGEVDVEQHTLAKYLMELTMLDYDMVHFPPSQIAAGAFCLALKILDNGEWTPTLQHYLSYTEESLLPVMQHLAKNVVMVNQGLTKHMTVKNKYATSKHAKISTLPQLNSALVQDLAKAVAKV
Procedure: as §1
as §2, with “were 0.5” for “were 3”, “nM CDK1/CCNB1,” for “nM CDK2/CCNE1,”
as §3, §4

[1] = 25-250 nM marked x, read-out: CDK2/CCNE IC50 25-250 nM
[2] = >250 nM marked x, read-out: CDK1/CCNB IC50 >250 nM
[3] = <25 nM, read-out: CDK2/CCNE IC50 <25 nM
[4] = 25-250 nM marked x, read-out: CDK1/CCNB IC50 25-250 nM

Row | pIC50 (CDK2/CCNE1; [1]) | pIC50 (CDK1/CCNB1; [2]) | Compound | other results
1 | 6.60 to 7.60 | < 6.60 | C=CS(=O)(=O)N1CCC(Nc2cc3c(N4CCC(OC(C)=O)C4)nccc3cn2)CC1 (racemic) [Ex 104, 1-(7-((1-(vinylsulfonyl)piperidin-4-yl)amino)-2,6-naphthyridin-1-yl)pyrrolidin-3-yl acetate] | –
2 | 6.60 to 7.60 | < 6.60 | N#CC1CCN(c2nccc3cnc(Nc4cccc(C(=O)NC5CCSC5=O)c4)cc23)CC1 (racemic) [Ex 112, 3-((5-(4-cyanopiperidin-1-yl)-2,6-naphthyridin-3-yl)amino)-N-(2-oxotetrahydrothiophen-3-yl)benzamide] | –
3 | 6.60 to 7.60 | < 6.60 | C=CS(=O)(=O)c1ccc(Nc2cc3c(N4CCCC(C#N)C4)nccc3cn2)cc1 (racemic) [Ex 123, 1-(7-((4-(vinylsulfonyl)phenyl)amino)-2,6-naphthyridin-1-yl)piperidine-3-carbonitrile] | –
4 | 6.60 to 7.60 | < 6.60 | COC(=O)C1CSC(c2nccc3cnc(Nc4ccc(S(C)(=O)=O)cc4)cc23)=N1 (racemic) [Ex 169, methyl 2-(7-((4-(methylsulfonyl)phenyl)amino)-2,6-naphthyridin-1-yl)-4,5-dihydrothiazole-4-carboxylate] | –
5 | 6.60 to 7.60 | < 6.60 | Cc1c(-c2nccc3cnc(Nc4ccc(S(C)(=O)=O)cc4)cc23)ccc2nn(CC3CCNC3)cc12 (racemic) [Ex 195, 5-(4-methyl-2-(pyrrolidin-3-ylmethyl)-2H-indazol-5-yl)-N-(4-(methylsulfonyl)phenyl)-2,6-naphthyridin-3-amine] | –
6 | 6.60 to 7.60 | < 6.60 | CS(=O)(=O)c1ccc(Nc2cc3c([C@@H]4CCC[C@H](O)C4)nccc3cn2)cc1 (racemic) [Ex 203, (1S,3R)-3-(7-((4-(methylsulfonyl)phenyl)amino)-2,6-naphthyridin-1-yl)cyclohexan-1-ol (cis, racemic)] | –
7 | 6.60 to 7.60 | < 6.60 | CS(=O)(=O)c1ccc(Nc2cc3c(C4CCCC(=O)C4)nccc3cn2)cc1 (racemic) [Ex 204, 3-(7-((4-(methylsulfonyl)phenyl)amino)-2,6-naphthyridin-1-yl)cyclohexan-1-one] | –
8 | 6.60 to 7.60 | < 6.60 | C=CS(=O)(=O)c1ccc(Nc2cc3c(N4CCC(O)C4)nccc3cn2)cc1 (racemic) [Ex 211, 1-(7-((4-(vinylsulfonyl)phenyl)amino)-2,6-naphthyridin-1-yl)pyrrolidin-3-ol] | –
9 | 6.60 to 7.60 | < 6.60 | CS(=O)(=O)N1CCC(Nc2cc3c(N4CCC(C(N)=O)C4)nccc3cn2)CC1 (racemic) [Ex 260, 1-(7-((1-(methylsulfonyl)piperidin-4-yl)amino)-2,6-naphthyridin-1-yl)pyrrolidine-3-carboxamide] | –

The remaining lines, values behind:

Row | Compound | pIC50 (CDK2/CCNE1; [1]) | pIC50 (CDK1/CCNB1; [2]) | other results
10 | CS(=O)(=O)N1CCC(Nc2cc3c(N4CCCCC4CO)nccc3cn2)CC1 (racemic) [Ex 56, (1-(7-((1-(methylsulfonyl)piperidin-4-yl)amino)-2,6-naphthyridin-1-yl)piperidin-2-yl)methanol] | 6.60 to 7.60 | < 6.60 | –
11 | CS(=O)(=O)N1CCC(Nc2cc3c(N4CCCC4CO)nccc3cn2)CC1 (racemic) [Ex 57, (1-(7-((1-(methylsulfonyl)piperidin-4-yl)amino)-2,6-naphthyridin-1-yl)pyrrolidin-2-yl)methanol] | 6.60 to 7.60 | < 6.60 | –
12 | CS(=O)(=O)N1CCC(Nc2cc3c(C(=O)N4CCC(C#N)C4)nccc3cn2)CC1 (racemic) [Ex 94, 1-(7-((1-(methylsulfonyl)piperidin-4-yl)amino)-2,6-naphthyridine-1-carbonyl)pyrrolidine-3-carbonitrile] | 6.60 to 7.60 | < 6.60 | –
13 | CS(=O)(=O)N1CCC(Nc2cc3c(C(=O)N4CCCC(C#N)C4)nccc3cn2)CC1 (racemic) [Ex 98, 1-(7-((1-(methylsulfonyl)piperidin-4-yl)amino)-2,6-naphthyridine-1-carbonyl)piperidine-3-carbonitrile] | 6.60 to 7.60 | < 6.60 | –
14 | CS(=O)(=O)c1ccc(Nc2cc3c(C4CCC(C#N)CC4)nccc3cn2)cc1 (racemic) [Ex 142, 4-(7-((4-(methylsulfonyl)phenyl)amino)-2,6-naphthyridin-1-yl)cyclohexane-1-carbonitrile] | – | – | pIC50 (CDK2/CCNE1; [3]): > 7.60; pIC50 (CDK1/CCNB1; [4]): 6.60 to 7.60
15 | COc1cc(S(=N)(=O)C2COC2)ccc1Nc1cc2c(C#Cc3ccc4c(c3)NC(=O)C43CC3)nccc2cn1 (single isomer, unassigned) [Ex 324, 6'-((7-((2-methoxy-4-(oxetane-3-sulfonimidoyl)phenyl)amino)-2,6-naphthyridin-1-yl)ethynyl)spiro[cyclopropane-1,3'-indolin]-2'-one] | – | – | pIC50 (CDK1/CCNB1; [4]): 6.60 to 7.60
16 | CC(C)S(=N)(=O)c1ccc(Nc2cc3c(C#Cc4ccc5c(c4)NC(=O)C5(C)CO)nccc3cn2)cc1 (single isomer, unassigned) [Ex 331, 3-(hydroxymethyl)-3-methyl-6-((7-((4-(propan-2-ylsulfonimidoyl)phenyl)amino)-2,6-naphthyridin-1-yl)ethynyl)indolin-2-one] | – | – | pIC50 (CDK1/CCNB1; <25 nM, read-out: CDK1/CCNB IC50 <25 nM): > 7.60
17 | CCC1(CC)C(=O)Nc2cc(C#Cc3nccc4cnc(Nc5ccc(S(=N)(=O)CC)cc5)cc34)ccc21 (single isomer, unassigned) [Ex 428, 3,3-diethyl-6-((7-((4-(ethylsulfonimidoyl)phenyl)amino)-2,6-naphthyridin-1-yl)ethynyl)indolin-2-one] | – | – | pIC50 (CDK1/CCNB1; x = IC50 >250 nM, read-out: CDK1/CCNB IC50 (>250 nM column)): < 6.60
18 | CCN(C)c1nccc2cnc(NC3CCN(S(C)(=O)=O)CC3)cc12 [Ex 38, N1-ethyl-N1-methyl-N7-(1-(methylsulfonyl)piperidin-4-yl)-2,6-naphthyridine-1,7-diamine] | – | – | pIC50 (CDK2/CCNE1; [3]): > 7.60; pIC50 (CDK1/CCNB1; [4]): 6.60 to 7.60
19 | CS(=O)(=O)N1CCC(Nc2cc3c(N(CO)Cc4ccccc4)nccc3cn2)CC1 [Ex 53, (benzyl(7-((1-(methylsulfonyl)piperidin-4-yl)amino)-2,6-naphthyridin-1-yl)amino)methanol] | 6.60 to 7.60 | < 6.60 | –
20 | CC1(O)CCN(c2nccc3cnc(NC4CCN(S(C)(=O)=O)CC4)cc23)CC1 [Ex 54, 4-methyl-1-(7-((1-(methylsulfonyl)piperidin-4-yl)amino)-2,6-naphthyridin-1-yl)piperidin-4-ol] | 6.60 to 7.60 | < 6.60 | –
21 | CN(Cc1ccccc1)C1CCN(c2nccc3cnc(NC4CCN(S(C)(=O)=O)CC4)cc23)CC1 [Ex 55, 5-(4-(benzyl(methyl)amino)piperidin-1-yl)-N-(1-(methylsulfonyl)piperidin-4-yl)-2,6-naphthyridin-3-amine] | 6.60 to 7.60 | < 6.60 | –
22 | CS(=O)(=O)N1CCC(Nc2cc3c(N4CCS(=O)(=O)CC4)nccc3cn2)CC1 [Ex 59, 4-(7-((1-(methylsulfonyl)piperidin-4-yl)amino)-2,6-naphthyridin-1-yl)thiomorpholine 1,1-dioxide] | – | < 6.60 | pIC50 (CDK2/CCNE1; >250 nM marked x, read-out: CDK2/CCNE IC50 >250 nM): < 6.60
23 | CS(=O)(=O)N1CCC(Nc2cc3c(N4CCN(CCO)CC4)nccc3cn2)CC1 [Ex 60, 2-(4-(7-((1-(methylsulfonyl)piperidin-4-yl)amino)-2,6-naphthyridin-1-yl)piperazin-1-yl)ethan-1-ol] | 6.60 to 7.60 | < 6.60 | –
24 | CS(=O)(=O)N1CCC(Nc2cc3c(C(=O)N4CCCCC4)nccc3cn2)CC1 [Ex 97, (7-((1-(methylsulfonyl)piperidin-4-yl)amino)-2,6-naphthyridin-1-yl)(piperidin-1-yl)methanone] | – | < 6.60 | –
